Like-named read-outs stand apart in the source and are kept apart here.
Experiments:
α1β2γ2 GABAA receptor = target: T1, α1β2γ2 GABAA receptor (Homo sapiens, UniProt P14867+P47870); assay: Patch clamp electrophysiology assay of recombinant α1β2γ2 GABAA receptors (potentiation of 2 μM GABA-evoked Cl- current); type: cell-based; conditions: HEK293T cells stably transfected with α1β2γ2 GABAA; for EC50: whole cell, 2 μM GABA, -80 mV
T1 construct: expressed in transfected cells
How it was run: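 Whole-cell voltage clamp at −80 mV on HEK293T cells stably expressing human α1β2γ2 GABAA. Compounds applied for 3 min, then 2 μM GABA (EC10–EC20) applied to assess potentiation of Cl− current. Ascending 0.003–10 μM concentrations tested on each cell, 180 s apart, with Rm >500 MΩ, Ra <15 MΩ and leak <100 pA as cell criteria.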

PTZ-treated mice = assay: Acute PTZ (pentylenetetrazol-induced seizure) assay; type: in vivo, Male CD-1 mice; conditions: 3 mg/kg oral gavage 60 min prior to PTZ 120 mg/kg s.c.; observed 30 min
Experimental: The anticonvulsant effect of test compounds were assessed in the pentylenetetazol-induced seizure assay in mice similar to methods described in Giardina & Gasior (2009) Curr Protoc Pharmacol., Chapter 5. Male CD-1 mice were housed in groups of five under controlled conditions (temperature of 22±2° C. and 12:12 light-dark cycle, lights on at 8:00 am) and water and food were available ad libitum. The mice were housed for 1 week prior to behavioral testing, at which time they weighed 25-35 g. Pentylenetetrazol (PTZ, Sigma) was dissolved in sterile 0.9% saline at a concentration of 12 mg/mL concentration for subcutaneous administration. Test compounds were formulated and administered via oral gavage at 60 minutes prior to PTZ injection. AU solutions were made fresh and were given in a volume of 10 ml/kg body weight.
Mice were acclimated to the test room for at least 30 min before compound administration. Mice were randomized into at least four test groups (vehicle and at least three doses of the test compound) with 10 mice per group. […] Following the drug pretreatment time, the mice were injected s.c. with PTZ (120 mg/kg). Immediately following the PTZ injection, mice were individually placed into observation chambers (25×15×15 cm) and a three-channel timer was started. Each mouse was continuously observed for 30 min and the following behaviors were recorded by observers blinded to the treatments: 1) latency to clonic convulsions that persist for 3 sec and followed by an absence of righting reflex 2) latency to tonic convulsions, characterized by the rigid extension of all four limbs that exceeded a 90 degree angle with the body 3) latency to death 4) number of clonic and tonic convulsions. Data are presented as mean±S.E.M and one-way analysis of variance with Dunnetfs or Bonferroni's post-hoc test was used to detect significant differences in latency and number between the vehicle and dose group, p values<0.05 were regarded as statistically significant.

[1] = Mouse PK study (i.v. and p.o.); type: in vivo; conditions: plasma, male CD1 mice; for half-life: read-out: T1/2 (hr) i.v. (converted); for Vd: read-out: Vss; for bioavailability: 5 mg/kg p.o. vs 1 mg/kg i.v.
Experimental: Test compounds were dosed to male CD1 mice at 5 mg/kg by oral gavage (p.o.) or 1 mg/kg by intravenous injection (i.v.). Blood samples were taken at 0.083, 0.25, 0.5, 1.0, 3.0, 6.0 and 24 hours post i.v. dosing and at 0.25, 0.5, 1.0, 3.0, 6.0 and 24 hours post p.o. dosing. The plasma concentration of compounds were determined by HPLC.

[2] = iv, 1 mg/kg i.v., read-out: AUClast (hr*ng/mL) i.v.
[3] = po, 5 mg/kg p.o., read-out: AUClast (hr*ng/mL) p.o.

T1 sequence (P14867 28-456): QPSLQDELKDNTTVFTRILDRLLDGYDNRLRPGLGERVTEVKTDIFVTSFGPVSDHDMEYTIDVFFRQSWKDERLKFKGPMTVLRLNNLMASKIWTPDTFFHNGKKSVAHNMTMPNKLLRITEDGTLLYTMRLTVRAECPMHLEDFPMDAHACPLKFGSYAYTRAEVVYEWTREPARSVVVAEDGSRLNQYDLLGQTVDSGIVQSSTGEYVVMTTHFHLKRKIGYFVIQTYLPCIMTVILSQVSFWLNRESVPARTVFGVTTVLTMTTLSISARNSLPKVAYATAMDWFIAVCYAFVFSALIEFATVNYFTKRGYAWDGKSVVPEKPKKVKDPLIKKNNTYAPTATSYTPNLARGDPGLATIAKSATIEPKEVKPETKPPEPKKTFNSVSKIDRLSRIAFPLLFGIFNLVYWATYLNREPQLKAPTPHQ
T1 sequence (P47870 25-512 limits assumed): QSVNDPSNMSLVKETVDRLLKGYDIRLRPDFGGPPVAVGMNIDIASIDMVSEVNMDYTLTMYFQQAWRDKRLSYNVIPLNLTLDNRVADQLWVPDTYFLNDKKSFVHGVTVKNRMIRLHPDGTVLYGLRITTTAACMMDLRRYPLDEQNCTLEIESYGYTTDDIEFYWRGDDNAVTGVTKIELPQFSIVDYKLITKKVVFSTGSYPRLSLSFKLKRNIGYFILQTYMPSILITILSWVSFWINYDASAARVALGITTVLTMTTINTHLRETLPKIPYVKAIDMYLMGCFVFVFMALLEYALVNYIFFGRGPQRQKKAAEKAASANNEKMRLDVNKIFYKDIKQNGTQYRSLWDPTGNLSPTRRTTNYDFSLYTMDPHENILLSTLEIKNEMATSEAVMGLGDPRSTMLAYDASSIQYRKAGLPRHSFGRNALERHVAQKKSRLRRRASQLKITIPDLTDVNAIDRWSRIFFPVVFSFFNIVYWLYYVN
T1 sequence (P18507 40-475 partner): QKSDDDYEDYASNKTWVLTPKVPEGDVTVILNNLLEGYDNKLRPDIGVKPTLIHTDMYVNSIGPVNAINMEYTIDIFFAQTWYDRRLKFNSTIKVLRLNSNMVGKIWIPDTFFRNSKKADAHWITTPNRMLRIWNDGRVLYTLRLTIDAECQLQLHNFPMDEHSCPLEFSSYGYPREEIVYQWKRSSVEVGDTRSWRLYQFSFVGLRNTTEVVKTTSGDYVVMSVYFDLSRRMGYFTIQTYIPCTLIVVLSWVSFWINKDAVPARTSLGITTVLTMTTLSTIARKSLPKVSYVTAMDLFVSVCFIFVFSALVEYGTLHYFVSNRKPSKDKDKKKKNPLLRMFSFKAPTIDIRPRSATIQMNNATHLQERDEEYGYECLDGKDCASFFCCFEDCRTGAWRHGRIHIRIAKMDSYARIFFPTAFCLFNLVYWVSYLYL

Structure (SMILES) | EC50 (α1β2γ2 GABAA receptor) | Emax (α1β2γ2 GABAA receptor; HEK-293T, potentiation of 2 μM GABA current) | Clonic Seizure Latency (sec) (Mean) (PTZ-treated mice) | Clonic Seizure Number (Mean) (PTZ-treated mice) | Mortality (%) (PTZ-treated mice) | Onset of death (sec) (Mean) (PTZ-treated mice) | Tonic Seizure Latency (sec) (Mean) (PTZ-treated mice) | Tonic Seizure Number (Mean) (PTZ-treated mice) | clearance ([1]; iv, 1 mg/kg i.v.) | AUC(0-t) [1, 2] | half-life ([1]; iv, 1 mg/kg i.v.) | Vd ([1]; iv, 1 mg/kg i.v.) | Cmax ([1]; po, 5 mg/kg p.o.) | Tmax ([1]; po, 5 mg/kg p.o.) | bioavailability ([1]; po) | AUC(0-t) [1, 3]
C[C@@]1(O)CC[C@H]2[C@H](CC[C@@H]3[C@@H]2CC[C@]2(C)[C@@H](C(=O)Cn4nnn(-c5ccc(F)cc5)c4=O)CC[C@@H]32)C1 [Example 11, 1-(4-fluorophenyl)-4-(2-((3R,5R,8R,9R,10S,13S,14S,17S)-3-hydroxy-3,13-dimethylhexadecahydro-1H-cyclopenta[a]phenanthren-17-yl)-2-oxoethyl)-1,4-dihydro-5H-tetrazol-5-one] | 0.044 µM | 795% | 717.4 ± 238.5 s | 0.8 ± 0.2 | 0.0% | 1800 + 0.0 sec | 1800 + 0.0 sec | 0.0 + 0.0 | 0.81 L/h/kg | 1230 ng·h/mL | 3.9 h | 2.42 L/kg | 0.274 µg/mL | 1 h | 52.3% | 3200 ng·h/mL
Cn1nccc1-n1nnn(CC(=O)[C@H]2CC[C@H]3[C@@H]4CC[C@@H]5C[C@](C)(O)CC[C@@H]5[C@H]4CC[C@]23C)c1=O [Example 26, 1-(2-((3R,5R,8R,9R,10S,13S,14S,17S)-3-hydroxy-3,13-dimethylhexadecahydro-1H-cyclopenta[a]phenanthren-17-yl)-2-oxoethyl)-4-(1-methyl-1H-pyrazol-5-yl)-1,4-dihydro-5H-tetrazol-5-one] | 0.064 µM | – | 1547.8 ± 139.2 s | 0.3 ± 0.2 | 0.0% | 1800 + 0.0 sec | 1800 + 0.0 sec | 0.0 + 0.0 | 0.94 L/h/kg | 1010 ng·h/mL | 1.39 h | 1.75 L/kg | 0.827 µg/mL | 1 h | 77.1% | 3910 ng·h/mL
C[C@@]1(O)CC[C@H]2[C@H](CC[C@@H]3[C@@H]2CC[C@]2(C)[C@@H](C(=O)Cn4nnn(-c5ccccc5)c4=O)CC[C@@H]32)C1 [Example 10, 1-(2-((3R,5R,8R,9R,10S,13S,14S,17S)-3-hydroxy-3,13-dimethylhexadecahydro-1H-cyclopenta[a]phenanthren-17-yl)-2-oxoethyl)-4-phenyl-1,4-dihydro-5H-tetrazol-5-one] | 0.027 µM | – | 1485 + 210.2 sec | 0.3 ± 0.2 | 0.0% | 1800 + 0.0 sec | 1800 + 0.0 sec | 0.0 + 0.0 | 0.54 L/h/kg | 1840 ng·h/mL | 4.22 h | 2.16 L/kg | 0.491 µg/mL | 3 h | 60.5% | 5510 ng·h/mL
